Results as given in ChEMBL document CHEMBL5360530, “Structure activity relationship (SAR) and anticancer activity of pyrrolidine derivatives: Recent developments and future prospects (A review)” (Eur J Med Chem, 2023).
Values after ≈ are worked out from the molar mass of the structure shown. Values belong to the compound of their own block, whether it stands above or below them.

Tests used:
[1] = system: MCF7; assay: Growth inhibition of human MCF7 cells assessed as cell growth inhibition by SRB assay; format: functional
[2] = system: COS-7; assay: Anticancer activity against COS-7 cells assessed as cell growth inhibition at 50 uM measured after 48 hrs by MTT assay relative to control; format: functional; details: Chlorocebus aethiops
[3] = system: HepG2; assay: Anticancer activity against human HepG2 cell assessed as cell growth inhibition; format: functional, cell-based
[4] = system: PC-3; assay: Potency index, ratio of cisplatin IC50 to test compound IC50 for anticancer activity against human PC-3 cells; format: functional
[5] = system: K562; assay: Anticancer activity against human K562 cells assessed as cell growth inhibition measured after 48 hrs by MTT assay; format: functional, cell-based; details: K562, 48 h
[6] = system: HT-29; assay: Anticancer activity against human HT-29 cells assessed as cell growth inhibition measured after 48 hrs by MTT assay; format: functional, cell-based; details: HT-29, 48 h
[7] = system: MCF7; assay: Anticancer activity against human MCF7 cells assessed as cell growth inhibition measured after 48 hrs by MTT assay; format: functional, cell-based; details: MCF7, 48 h
[8] = system: MCF7; assay: Anticancer activity against human MCF7 cells assessed as cell growth inhibition by SRB assay; format: functional, cell-based
[9] = system: MDA-MB-435; assay: Anticancer activity against human MDA-MB-435 cells assessed as cell growth inhibition by SRB assay; format: functional, cell-based
[10] = system: PC-3; assay: Anticancer activity against human PC-3 cells assessed as cell death at 50 uM measured after 72 hrs by MTT assay relative to control; format: functional
[11] = system: HCT-116; assay: Anticancer activity against human HCT-116 cells assessed as cell growth inhibition measured after 24 hrs by SRB assay; format: functional, cell-based; details: HCT-116, 24 h
[12] = system: A549; assay: Anticancer activity against human A549 cells assessed as cell growth inhibition measured after 48 hrs by MTT assay; format: functional, cell-based; details: A549, 48 h

Compound: O=C1Nc2ccccc2C12CCNC2c1cccc(F)c1 (stereo unspecified)
inhibition at 50 µM [2]: 0.51%

Compound: COc1cc(OC)c(C2NCCC23C(=O)Nc2ccccc23)cc1OC (stereo unspecified)
inhibition at 50 µM [2]: 0.51%

Compound: O=C1Nc2ccccc2C12CCNC2c1cc(C(F)(F)F)ccc1C(F)(F)F (stereo unspecified)
inhibition at 50 µM [2]: 0.51%

Compound: COC(=O)[C@H]1C[C@@H](C(=O)OC)C(c2ccccc2)(c2ccccc2)N1C(=O)Cn1cc(C2CCCC2)nn1
Activity [10]: 30%

Compound: COC(=O)[C@H]1C[C@@H](C(=O)OC)C(c2ccccc2)(c2ccccc2)N1C(=O)Cn1cc(CC2CCCCC2)nn1
Activity [10]: 64%

Compound: COC(=O)[C@H]1C[C@@H](C(=O)OC)C(c2ccccc2)(c2ccccc2)N1C(=O)Cn1cc(CCc2ccccc2)nn1
Activity [10]: 25%

Compound: COC(=O)[C@H]1C[C@@H](C(=O)OC)C(c2ccccc2)(c2ccccc2)N1C(=O)Cn1cc(-c2ccccc2)nn1
Activity [10]: 30%

Compound: COC(=O)[C@H]1C[C@@H](C(=O)OC)C(c2ccccc2)(c2ccccc2)N1C(=O)Cn1cc(C2CC2)nn1
Activity [10]: 25%

Compound: COc1ccc(C2NCCC23C(=O)Nc2ccccc23)cc1OC (stereo unspecified)
inhibition at 50 µM [2]: 0.51%

Compound: N#CC1=C(N)OC2=C(c3ccccc3C2=O)C12C(=O)Nc1ccc(Cl)cc12 (stereo unspecified)
IC50 [8]: ≥ 53000 nM | IC50 [9]: ≥ 3600 nM

Compound: CCCC(C)c1cn(CC(=O)N2[C@@H](C(=O)OC)C[C@@H](C(=O)OC)C2(c2ccccc2)c2ccccc2)nn1 (stereo partly specified)
Activity [10]: 25%

Compound: COc1cccc2c1C(=O)c1c(O)c3c(c(O)c1C2=O)C[C@@](O)(C(=O)CO)C[C@@H]3O[C@H]1C[C@H](N)[C@H](O)[C@H](C)O1.Cl [DOXORUBICIN HYDROCHLORIDE]
GI50 [1]: < 10 µg/mL

More lines, main results first:

GI50 [1]: < 10 µg/mL
Compound: O=C(/C=C/c1ccccc1)c1ccc(OCCN2CCCC2)cc1

IC50 [3]: 5500 nM
Compound: O=C(c1c[nH]c2ccccc12)[C@@H]1[C@@H](c2ccc(Cl)cc2Cl)[C@@H]2CSCN2[C@@]12C(=O)Nc1ccccc12
Ratio IC50 [4]: >4.3

IC50 [5]: 390 nM | IC50 [6]: 390 nM | IC50 [7]: 390 nM
Compound: O=C1CCC(=O)N1CC(=O)N1N=C(c2ccccc2)CC1c1ccc(F)cc1 (stereo unspecified)

IC50 [5]: 61900 nM | IC50 [6]: 390 nM | IC50 [7]: 780 nM
Compound: O=C1CCC(=O)N1CC(=O)N1N=C(c2ccccc2)CC1c1ccc(Cl)c(Cl)c1 (stereo unspecified)

IC50 [8]: ≥ 53000 nM | IC50 [9]: ≥ 3600 nM
Compound: N#CC1=C(N)OC2=C(c3ccccc3C2=O)C12C(=O)Nc1ccc(I)cc12 (stereo unspecified)

IC50 [11]: 5070 nM
Compound: CC(=O)Oc1ccc(C(=O)/C=C2/C(=O)Nc3ccc(S(=O)(=O)N4CCOCC4)cc32)cc1

IC50 [8]: ≥ 53000 nM | IC50 [9]: ≥ 3600 nM
Compound: N#CC1=C(N)OC2=C(c3ccccc3C2=O)C12C(=O)Nc1ccc(Br)cc12 (stereo unspecified)

GI50 [1]: > 80 µg/mL
Compound: O=C(/C=C/c1ccc(OCCN2CCCC2)cc1)c1ccc(Cl)cc1Cl

GI50 [1]: > 80 µg/mL
Compound: O=C(/C=C/c1ccco1)c1ccc(OCCN2CCCC2)cc1

GI50 [1]: 24.7 µg/mL (≈ 63.3 µM)
Compound: O=C(/C=C/c1ccc(Cl)cc1Cl)c1ccc(OCCN2CCCC2)cc1

IC50 [5]: 390 nM | IC50 [6]: 390 nM | IC50 [7]: 390 nM
Compound: O=C1CCC(=O)N1CC(=O)N1N=C(c2ccccc2)CC1c1ccccc1 (stereo unspecified)

IC50 [12]: 24 nM | IC50 [7]: 355 nM
Compound: CCOC(=O)[C@H]1CCCN1CC(=O)Nc1ccc2c(C)cc(=O)oc2c1

IC50 [8]: ≥ 53000 nM | IC50 [9]: ≥ 3600 nM
Compound: N#CC1=C(N)OC2=C(c3ccccc3C2=O)C12C(=O)Nc1ccccc12 (stereo unspecified)

IC50 [12]: 24 nM | IC50 [7]: 355 nM
Compound: Cc1cc(=O)oc2cc(NC(=O)CN3CCC[C@@H]3C(N)=O)ccc12

GI50 [1]: > 80 µg/mL
Compound: O=C(/C=C/c1c(Cl)cccc1Cl)c1ccc(OCCN2CCCC2)cc1

IC50 [5]: 350 nM | IC50 [6]: 19900 nM | IC50 [7]: 47200 nM
Compound: CC(=O)O[C@H]1C(=O)[C@@]2(C)[C@H]([C@H](OC(=O)c3ccccc3)[C@]3(O)C[C@H](OC(=O)[C@H](O)[C@@H](NC(=O)c4ccccc4)c4ccccc4)C(C)=C1C3(C)C)[C@]1(OC(C)=O)CO[C@@H]1C[C@@H]2O [PACLITAXEL]

IC50 [5]: 290 nM | IC50 [6]: 40300 nM | IC50 [7]: 70 nM
Compound: CCc1ccc(CCOc2ccc(CC3SC(=O)NC3=O)cc2)nc1 (stereo unspecified) [PIOGLITAZONE]
